Assay results as given in patent US11253499B2, “Compounds” (priority 2017, dated 2022).

These molecules were tested on M. tuberculosis W4-E1-GFP (Mutant). Details: read-out: EC50_Mutant.
Type: cell-based, Mycobacterium tuberculosis
Molecule `O=C(CCC(F)(F)F)N1CC(c2cccnc2)C1` [Example 26, 4,4,4-trifluoro-1-[3-(3-pyridyl)azetidin-1-yl]butan-1-one] has an EC50 of 1000 to 10000 nM.
`O=C(CCC(F)(F)F)N1CC(C2CCCC2)C1` [Example 5, 1-(3-cyclopentylazetidin-1-yl)-4,4,4-trifluoro-butan-1-one] gave an EC50 of 50 to 250 nM.
With `O=C(CCC(F)(F)F)N1CC(c2ccc(C(F)(F)F)nc2)C1` [Example 21, 4,4,4-trifluoro-1-[3-[6-(trifluoromethyl)-3-pyridyl]azetidin-1-yl]butan-1-one] the EC50 was 1000 to 10000 nM.
Molecule `N#Cc1ccc(C2CN(C(=O)CCC(F)(F)F)C2)cc1` [Example 43, 4-(1-(4,4,4-trifluorobutanoyl)azetidin-3-yl)benzonitrile] has an EC50 of 1000 to 10000 nM.
`CC1(c2ccc(F)cc2)CN(C(=O)CCC(F)(F)F)C1` [Example 42, 4,4,4-trifluoro-1-(3-(4-fluorophenyl)-3-methylazetidin-1-yl)butan-1-one] showed an EC50 of 50 to 250 nM.
For `O=C(CCC(F)(F)F)N1CC(c2ccc(Cl)cc2)C1` [Example 13, 1-[3-(4-chlorophenyl)azetidin-1-yl]-4,4,4-trifluoro-butan-1-one], the EC50 was 50 to 250 nM.
`O=C(CCC(F)(F)F)N1CC(N2CCCCC2)C1` [Example 39, 4,4,4-trifluoro-1-(3-(piperidin-1-yl)azetidin-1-yl)butan-1-one] gave an EC50 of 1000 to 10000 nM.
Work on `O=C(CCC(F)(F)F)N1CC(c2ccnc(C(F)(F)F)c2)C1` [Example 12, 4,4,4-trifluoro-1-[3-[2-(trifluoromethyl)-4-pyridyl]azetidin-1-yl]butan-1-one] yielded an EC50 of 1000 to 10000 nM.
Molecule `O=C(CCC(F)(F)F)N1CC(c2ccc(F)cn2)C1` [Example 9, 4,4,4-trifluoro-1-[3-(5-fluoro-2-pyridyl)azetidin-1-yl]butan-1-one] has an EC50 of 500 to 1000 nM.
`O=C(CCC(F)(F)F)N1CC(c2cc(F)c(F)c(F)c2)C1` [Example 34, 4,4,4-trifluoro-1-[3-(3,4,5-trifluorophenyl)azetidin-1-yl]butan-1-one] showed an EC50 of 50 to 250 nM.
Molecule `O=C(CCC(F)(F)F)N1CC(c2cccc(OC(F)(F)F)c2)C1` [Example 15, 4,4,4-trifluoro-1-[3-[3-(trifluoromethoxy)phenyl]azetidin-1-yl]butan-1-one] has an EC50 of 50 to 250 nM.
`O=C(CCC(F)(F)F)N1CC(c2ccc(C(F)(F)F)cn2)C1` [Example 8, 4,4,4-trifluoro-1-[3-[5-(trifluoromethyl)-2-pyridyl]azetidin-1-yl]butan-1-one] showed an EC50 of 500 to 1000 nM.
In the case of `O=C(CCC(F)(F)F)N1CC(c2ccc(F)cc2)C1` [Example 1, 4,4,4-trifluoro-1-[3-(4-fluorophenyl)azetidin-1-yl]butan-1-one], the EC50 is reported as < 50 nM.
With `O=C(CCC(F)(F)F)N1CC(c2cc(C(F)(F)F)ccn2)C1` [Example 7, 4,4,4-trifluoro-1-[3-[4-(trifluoromethyl)-2-pyridyl]azetidin-1-yl]butan-1-one] the EC50 was 250 to 500 nM.
`O=C(CCC(F)(F)F)N1CC(C2CC2)C1` [Example 4, 1-(3-cyclopropylazetidin-1-yl)-4,4,4-trifluoro-butan-1-one] showed an EC50 of 500 to 1000 nM.
In the case of `O=C(CCC(F)(F)F)N1CC(c2ccnc(F)c2)C1` [Example 31, 4,4,4-trifluoro-1-[3-(2-fluoro-4-pyridyl)azetidin-1-yl]butan-1-one], the EC50 is reported as 1000 to 10000 nM.
`O=C(CCC(F)(F)F)N1CC(c2ccc(OC(F)(F)F)cc2)C1` [Example 14, 4,4,4-trifluoro-1-[3-[4-(trifluoromethoxy)phenyl]azetidin-1-yl]butan-1-one] gave an EC50 of 1000 to 10000 nM.
For `O=C(CCC(F)(F)F)N1CC(c2ccc(F)c(F)c2)C1` [Example 27, 1-[3-(3,4-difluorophenyl)azetidin-1-yl]-4,4,4-trifluoro-butan-1-one], the EC50 was < 50 nM.
`O=C(CCC(F)(F)F)N1CC(C2CCOCC2)C1` [Example 38, 4,4,4-trifluoro-1-(3-(tetrahydro-2H-pyran-4-yl)azetidin-1-yl)butan-1-one] showed an EC50 of 1000 to 10000 nM.
`COc1ccc(C2CN(C(=O)CCC(F)(F)F)C2)cn1` [Example 22, 4,4,4-trifluoro-1-[3-(6-methoxy-3-pyridyl)azetidin-1-yl]butan-1-one] gave an EC50 of 50 to 250 nM.
For `O=C(CCC(F)(F)F)N1CC(c2ccnc(Cl)c2)C1` [Example 32, 1-[3-(2-chloro-4-pyridyl)azetidin-1-yl]-4,4,4-trifluoro-butan-1-one], the EC50 was 1000 to 10000 nM.
Molecule `O=C(CCC(F)(F)F)N1CC(N2CCC(F)(F)CC2)C1` [Example 35, 1-[3-(4,4-difluoro-1-piperidyl)azetidin-1-yl]-4,4,4-trifluoro-butan-1-one] has an EC50 of 500 to 1000 nM.
Work on `O=C(CCC(F)(F)F)N1CC(c2cncc(Cl)c2)C1` [Example 23, 1-[3-(5-chloro-3-pyridyl)azetidin-1-yl]-4,4,4-trifluoro-butan-1-one] yielded an EC50 of 1000 to 10000 nM.
With `O=C(CCC(F)(F)F)N1CC(c2ccc(F)nc2)C1` [Example 33, 4,4,4-trifluoro-1-[3-(6-fluoro-3-pyridyl)azetidin-1-yl]butan-1-one] the EC50 was 1000 to 10000 nM.
In the case of `O=C(CCC(F)(F)F)N1CC(c2cc(Cl)ccn2)C1` [Example 11, 1-[3-(4-chloro-2-pyridyl)azetidin-1-yl]-4,4,4-trifluoro-butan-1-one], the EC50 is reported as 50 to 250 nM.
Molecule `O=C(CCC(F)(F)F)N1CC(c2cccc(C(F)(F)F)c2)C1` [Example 2, 4,4,4-trifluoro-1-[3-[3-(trifluoromethyl)phenyl]azetidin-1-yl]butan-1-one] has an EC50 of 50 to 250 nM.
Work on `Cc1cc(F)ccc1C1CN(C(=O)CCC(F)(F)F)C1` [Example 28, 4,4,4-trifluoro-1-[3-(4-fluoro-2-methyl-phenyl)azetidin-1-yl]butan-1-one] yielded an EC50 of 250 to 500 nM.
`O=C(CCC(F)(F)F)N1CC(C2CCCCC2)C1` [Example 6, 1-(3-cyclohexylazetidin-1-yl)-4,4,4-trifluoro-butan-1-one] was tested, and the EC50 was < 50 nM.
`O=C(CCC(F)(F)F)N1CC(c2cccc(F)c2)C1` [Example 29, 4,4,4-trifluoro-1-[3-(3-fluorophenyl)azetidin-1-yl]butan-1-one] gave an EC50 of 50 to 250 nM.
`O=C(CCC(F)(F)F)N1CC(c2ccc(F)cc2F)C1` [Example 18, 1-[3-(2,4-difluorophenyl)azetidin-1-yl]-4,4,4-trifluoro-butan-1-one] was tested, and the EC50 was < 50 nM.
Molecule `O=C(CCC(F)(F)F)N1CC(c2ncc(F)cc2F)C1` [Example 10, 1-[3-(3,5-difluoro-2-pyridyl)azetidin-1-yl]-4,4,4-trifluoro-butan-1-one] has an EC50 of 250 to 500 nM.
With `O=C(CCC(F)(F)F)N1CC(F)(c2ccc(F)cc2)C1` [Example 44, 4,4,4-trifluoro-1-(3-fluoro-3-(4-fluorophenyl)azetidin-1-yl)butan-1-one] the EC50 was < 50 nM.
Molecule `O=C(CCC(F)(F)F)N1CC(c2ccc(Cl)nc2)C1` [Example 19] has an EC50 of 1000 to 10000 nM.
`O=C(CCC(F)(F)F)N1CC(c2ccncc2)C1` [Example 30, 4,4,4-trifluoro-1-[3-(4-pyridyl)azetidin-1-yl]butan-1-one] was tested, and the EC50 was 1000 to 10000 nM.
Molecule `O=C(CCC(F)(F)F)N1CC(c2ccc(F)cc2C(F)(F)F)C1` [Example 25, 4,4,4-trifluoro-1-[3-[4-fluoro-2-(trifluoromethyl)phenyl]azetidin-1-yl]butan-1-one] has an EC50 of 250 to 500 nM.
With `O=C(CCCC(F)(F)F)N1CC(c2ccc(F)cc2)C1` [Example 3, 5,5,5-trifluoro-1-[3-(4-fluorophenyl)azetidin-1-yl]pentan-1-one] the EC50 was 50 to 250 nM.
`CC(C)Oc1ccc(C2CN(C(=O)CCC(F)(F)F)C2)cn1` [Example 36, 4,4,4-trifluoro-1-[3-(6-isopropoxy-3-pyridyl)azetidin-1-yl]butan-1-one] gave an EC50 of 1000 to 10000 nM.
`O=C(CCC(F)(F)F)N1CC(c2ccc(OCC(F)(F)F)nc2)C1` [Example 37, 4,4,4-trifluoro-1-[3-[6-(2,2,2-trifluoroethoxy)-3-pyridyl]azetidin-1-yl]butan-1-one] gave an EC50 of 1000 to 10000 nM.
`O=C(CCC(F)(F)F)N1CC(C2CCC(F)(F)CC2)C1` [Example 40, 1-(3-(4,4-difluorocyclohexyl)azetidin-1-yl)-4,4,4-trifluorobutan-1-one] was tested, and the EC50 was 50 to 250 nM.
In the case of `O=C(CCC(F)(F)F)N1CC(c2cncc(C(F)(F)F)c2)C1` [Example 24, 4,4,4-trifluoro-1-[3-[5-(trifluoromethyl)-3-pyridyl]azetidin-1-yl]butan-1-one], the EC50 is reported as 1000 to 10000 nM.
In the case of `O=C(CCC(F)(F)F)N1CC(c2ccc(C(F)(F)F)cc2)C1` [Example 16], the EC50 is reported as 250 to 500 nM.
`O=C(CCC(F)(F)F)N1CC(c2ccc(F)cc2Cl)C1` [Example 20, 1-[3-(2-chloro-4-fluoro-phenyl)azetidin-1-yl]-4,4,4-trifluoro-butan-1-one] showed an EC50 of 50 to 250 nM.
For `O=C(CCC(F)(F)F)N1CC(c2cccc(Cl)c2)C1` [Example 17, 1-[3-(3-chlorophenyl)azetidin-1-yl]-4,4,4-trifluoro-butan-1-one], the EC50 was < 50 nM.
`COC1(c2ccc(F)cc2)CN(C(=O)CCC(F)(F)F)C1` [Example 41, 4,4,4-trifluoro-1-(3-(4-fluorophenyl)-3-methoxyazetidin-1-yl)butan-1-one] was tested, and the EC50 was 50 to 250 nM.
